Results reported in publication PMC10526274, “Epithelial-Immune Cell Crosstalk Determines the Activation of Immune Cells In Vitro by the Human Cathelicidin LL-37 at Low Physiological Concentrations” (Biomolecules, 2023).
Values joined by “and” are separate entries in the source; they are usually repeats but may differ in a detail not shown here. Equal values may be shown once.

System: primary blood monocytes
Experiment: Multiplex xMAP cytokine levels, primary blood monocytes alone stimulated with LL-37
Type: cell-based, human
Conditions: 1 µM LL-37, 24 h
Protocol: Peripheral blood mononuclear cells (PBMCs) from a healthy donor were purchased from the American Type Culture Collection (ATCC PCS-800-011). Blood monocytes were isolated from PBMCs by plastic adhesion. Mature monocyte-derived dendritic cells (moDCs) were generated in vitro from peripheral blood monocytes, according to Nair et al.. Briefly, monocytes were cultured in a humidified CO2-incubator (5% CO2, 37 °C) in the complete RPMI-1640 medium (Gibco) with 10% FBS, antibiotics, and supplemented with a cytokine cocktail containing 500 U/mL rhIL-4 and 800 U/mL rhGM-CSF (both Sci-Store, Moscow, Russia). On the third day, the medium was replaced by the same fresh medium with FBS, antibiotics, and the cytokine cocktail. Induction of maturation of the immature monocyte-derived dendritic cells was performed on the 5th day by replacing the medium with the complete RPMI-1640 medium (Gibco) with 10% FBS and antibiotics, supplemented with a cytokine cocktail containing 500 U/mL rhIL-4, 800 U/mL rhGM-CSF (both Sci-Store, Moscow, Russia), and 100 U/mL rhTNF-α (Sigma-Aldrich), and subjected to subsequent incubation of the culture for 4 more days.
Primary blood monocytes, moDCs, and NKT cells were seeded in 600 µL of complete RPMI-1640 with 10% Human AB serum (Capricorn Scientific, Ebsdorfergrund, Germany) and supplemented with 1X antibiotic–antimycotic solution into the wells of 24-well plates at a density of 3–7 × 10^5 cells/well 24 h before the experiment. Then, 24 h later, the medium in each well was replaced by the same medium with 1 µM of LL-37 for the sample wells or fresh medium alone for the control wells, and the permeable inserts with the Caco-2 monolayer with TEER > 400 Ω × cm^2, containing 400 μL of the complete medium in their apical chamber, were immediately placed into the appropriate wells. Also, inserts with the Caco-2 monolayer were placed in cell-free wells of 24-well plates in the same complete RPMI-1640 medium with or without 1 µM of LL-37 as controls. Cells were kept in a CO2-incubator (5% CO2, 37 °C) for another 24 h. Then, culture medium from each well was collected, centrifuged, and frozen at −70 °C.
To quantitatively evaluate a broad spectrum of analytes secreted by human cell cultures at the protein level, multiplex xMAP technology was used. The chosen panel (cat. #HCYTA-60K-PX48, Merck, Darmstadt, Germany) included 48 different magnetic beads with primary antibodies to the following cytokines, chemokines, and growth factors: CCL11 (Eotaxin-1), Flt-3 ligand, CX3CL1 (Fractalkine), sCD40L, FGF-2, EGF, GROα, GM-CSF, G-CSF, IL-1RA, IL-1α, IL-1β, IL-2, IL-3, IL-4, IL-5, IL-6, IL-7, CXCL8 (IL-8), IL-9, IL-10, IL-12p40, IL-12p70, IL-13, IL-15, IL-17A (CTLA8), IL-17E (IL-25), IL-17F, IL-18, IL-22, IL-27, IFNγ, IFNα2, CXCL10 (IP-10), CCL2 (MCP-1), CCL7 (MCP-3), CCL22 (MDC), CXCL9 (MIG), CCL3 (MIP-1α), CCL4 (MIP-1β), CCL5 (RANTES), M-CSF, PDGF-AA, PDGF-AB/BB, TNFα, TNFβ, TGFα, and VEGF-A. The assay was performed in accordance with the manufacturer’s instructions with overnight incubation of the samples with primary antibodies, and the plate was read on a MAGPIX System (Merck) using the xPONENT 4.2 software (Merck). The acquired fluorescence data were analyzed by the MILLIPLEX Analyst v5.1 software (Merck), which realized an advanced curve-fitting algorithm. Levels of the analytes in control and experimental samples were compared with an unpaired two-sample t-test using GraphPad Prism v.8.0.1 (GraphPad Software, Inc., San Diego, CA, USA). The p-values ≤ 0.05 were considered significant.

“LL-37: the only human cathelicidin, host defense antimicrobial peptide of 37 a.a. residues, produced by solid-phase peptide synthesis” gave an RANTES level (n=2, control 1.06) of 181.22 pg/mL, an FLT-3L level (n=2, control 1.18) of 0.93 pg/mL and an IL-2 level (n=2, control 1.49) of 0.99 pg/mL. The IL-18 level (n=2, control 1.74) was 1.22 pg/mL, the IFNg level (n=2, control 1.82) was 1.8 pg/mL and the IL-4 level (n=2, control 1.92) was 1.63 pg/mL. For the same substance, the IL-17A level (n=2, control 2.18) was 3.05 pg/mL, the IL-15 level (n=2, control 2.88) was 1.82 pg/mL and the GM-CSF level (n=2, control 3.83) was 4.97 pg/mL. The TGF-a level (n=2, control 4.84) was 3.88 pg/mL, the IL-9 level (n=2, control 6.65) was 6.65 pg/mL and the TNFb level (n=2, control 10.12) was 11.76 pg/mL. It also gave an IFNa2 level (n=2, control 15.98) of 11.65 pg/mL, an EGF level (n=2, control 18.24) of 17.26 pg/mL and an IL-1a level (n=2, control 18.92) of 25.51 pg/mL. The IL-10 level (n=2, control 22.54, p = 0.23) was 23.6 pg/mL and 23.64 pg/mL, the IL-13 level (n=2, control 25.51) was 23.32 pg/mL and the IL-1b level (n=2, control 25.75, p = 0.094) was 32 pg/mL and 32.49 pg/mL. It also gave an IL-22 level (n=2, control 27.2) of 27.2 pg/mL, a Fractalkine level (n=2, control 28.72) of 25.92 pg/mL and a M-GSF level (n=2, control 32.5) of 62.71 pg/mL. For the same substance, the “IL-12 (p40) level” value (n=2, control 32.89) was 37.68 pg/mL, the VEGFa level (n=2, control 35.58) was 36.32 pg/mL and the MIP-1a level (n=2, control 45.5, p = 0.0001) was 109 pg/mL and 109.63 pg/mL. For the same substance, the FGF-2 level (n=2, control 52.5) was 47.27 pg/mL, the PDGF-AA level (n=2, control 62.71) was 47.99 pg/mL and the IL-27 level (n=2, control 63.66) was 67.29 pg/mL. It also gave an MIP-1b level (n=2, control 78.19, p = 0.0004) of 2750 pg/mL, an IL-1RA level (n=2, control 86.47) of 65.97 pg/mL and a sCD40L level (n=2, control 108.76) of 102.18 pg/mL. The TNFa level (n=2, control 110.45, p = 0.15) was 123 pg/mL and 123.49 pg/mL, the G-CSF level (n=2, control 121.45, p = 0.002) was 220 pg/mL and 220.28 pg/mL and the MIG level (n=2, control 606.02, p = 0.003) was 342 pg/mL and 342.19 pg/mL. For the same substance, the PDGF-AB/BB level (n=2, control 1327) was 1070 pg/mL, the IP-10 level (n=2, control 1716) was 11.29 pg/mL and the MDC level (n=2, control 3407) was 3208 pg/mL. It also gave an IL-6 level (n=2, control 4145) of 4861 pg/mL, an MCP-3 level (n=2, control 4963) of 3343 pg/mL and a GROa level (n=2, control 5512) of 5987 pg/mL. For the same substance, the MCP-1 level (n=2, control 8325) was 7953 pg/mL, the IL-7 level (n=2, control <0.30) was <0.30↓ pg/ml and the IL-5 level (n=2, control <0.35) was <0.35↓ pg/ml. For the same substance, the IL-3 level (n=2, control <0.55) was <0.55↓ pg/ml, the “IL-12 (p70) level” value (n=2, control <1.71) was <1.71↓ pg/ml and the Eotaxin level (n=2, control <2.91) was <2.91↓ pg/ml. The IL-17F level (n=2, control <12.19) was <12.19↓ pg/ml, the IL-17E/IL-25 level (n=2, control <19.43) was <19.43↓ pg/ml and the IL-8 level (n=2, control >21942) was >21942↑ pg/ml.
